For data set [1] the following is noted: cited from earlier work.
Data set [2] in a line: Chemiluminescence spectrum in DMSO (Shimadzu RF5001PC). In kind it is physicochemical. As to conditions: for max. emission peak of chemiluminescent spectrum: 1-3 μg/mL in DMSO. As for the experimental part:
Chemiluminescence Spectrums.
Consequently, 10 μL of the stock solution were directly diluted in the quartz cuvette reader of the Fluorescence Spectrophotometer Shimadzu RF5001PC, containing 3 mL of DMSO, to obtain a final sample concentration of 1-3 μg/mL.

Data set [3] has as its target T1, Renilla Luciferase (RLuC) (Renilla reniformis, UniProt P27652).
T1 sequence (P27652 1-311): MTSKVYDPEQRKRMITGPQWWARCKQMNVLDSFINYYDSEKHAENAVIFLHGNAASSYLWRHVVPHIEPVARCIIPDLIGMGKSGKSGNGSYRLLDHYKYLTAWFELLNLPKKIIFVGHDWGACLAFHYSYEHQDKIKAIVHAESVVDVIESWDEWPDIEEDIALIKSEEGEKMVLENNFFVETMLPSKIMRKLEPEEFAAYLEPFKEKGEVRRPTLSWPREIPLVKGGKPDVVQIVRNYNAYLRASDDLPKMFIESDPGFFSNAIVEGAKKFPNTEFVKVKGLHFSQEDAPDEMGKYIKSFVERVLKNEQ
Method: Bioluminescence Spectrum.
Bioluminescence was measured according to standard procedures.^40

In a further data set the target is T2, RLuc (Renilla reniformis, UniProt P27652).
T2 sequence (P27652 1-311): T1 sequence (P27652 1-311)
The settings on record: cited from earlier work.

Data set [4] has as its target T3, RLuC (donor) and Green Fluorescent Protein GFP (acceptor) (Renilla reniformis, UniProt P27652).
T3 sequence (P27652 1-311): T1 sequence (P27652 1-311)
The settings on record: three different times, FIG. 8-10.

The conditions of data set [5]: cited from earlier work. The source holds these as a separate data set.
The mark [6] stands for this setting: first line of values, native = 1.00.
[7] abbreviates: second line of values (line with half-rise time in ms).

Where two headings read alike, the source gives them in different places.

For `O=c1c(Cc2ccc(F)cc2)nc2c(Cc3ccccc3)[nH]c(-c3ccc(O)cc3)cn1-2` [Coelenterazine f], the “Half-rise Time” value in data set [1] (first line of values) is 0.4 to 0.8 s; in data set [1] (second line of values), 0.006 to 0.03 s. The “Relative Intensity” value in data set [1] (setting [6]) is 18; in data set [1] (setting [7]), 20. The “Relative Luminescence capacity” value in data set [1] (setting [6]) and in data set [1] (setting [7]) was 0.80 throughout.
As to `Oc1ccc(-c2cn3c(O)c(Cc4ccccc4)nc3c(Cc3ccccc3)n2)cc1` [Coelenterazine h], the “Half-rise Time” value in data set [1] (first line of values) was 0.4 to 0.80 s; in data set [1] (second line of values) it was 0.006 to 0.03 s. Also, the entries for the “Relative Intensity” value in data set [1] (setting [6]) and in data set [1] (setting [7]) were 10 and 16, respectively. For the same compound, the “Relative Luminescence capacity” value in data set [1] (setting [6]) was 0.82; in data set [1] (setting [7]), 0.75.
In the case of `O=c1c(Cc2ccccc2)nc2c(Sc3ccc(Cl)cc3)[nH]c(-c3ccc(O)cc3)cn1-2` [Compound 23i, 2-Benzyl-8-(4-chlorophenylthio)-6-(4-hydroxyphenyl)imidazo[1,2-a]pyrazin-3(7H)-one], in data set [2], the “Chemil. Imax” value is listed as 505 nm. Further, the “Biolum. Imax” value in data set [3] was found to be 510 nm.
In the case of Coelenterazine hcp, the entries for the “Half-rise Time” value in data set [1] (first line of values) and in data set [1] (second line of values) were 0.15 to 0.3 s and 0.002 to 0.005 s, respectively. Further, the “Relative Intensity” value in data set [1] (setting [6]) was 190; in data set [1] (setting [7]), 500. Moreover, the “Relative Luminescence capacity” value in data set [1] (setting [6]) is reported as 0.67; in data set [1] (setting [7]), 0.65.
For the compound `O=c1c(Cc2ccccc2)nc2c(Cc3ccccc3)[nH]c(-c3ccccc3)cn1-2` [Coelenterazine 400a], the Rluc emission peak at RLuc is given as 395 nm.
Consider Coelenterazine ip, for which, in data set [1] (first line of values), the “Half-rise Time” value is recorded as 1 s. In data set [1] (setting [6]), the “Relative Intensity” value was 47 and the “Relative Luminescence capacity” value is 0.54.
As for `O=c1c(Cc2ccc(I)cc2)nc2c(Cc3ccccc3)[nH]c(-c3ccc(O)cc3)cn1-2` [Coelenterazine i], the “Half-rise Time” value in data set [1] (first line of values) was 8 s. Moreover, in data set [1] (setting [6]), the “Relative Intensity” value is recorded as 0.03 and the “Relative Luminescence capacity” value is recorded as 0.70.
In the case of `O=c1c(Cc2ccccc2)nc2c(Sc3ccccc3)[nH]c(-c3ccccc3)cn1-2` [Compound 23f, 2-Benzyl-6-phenyl-8-(phenylthio)imidazo-[1,2-a]pirazin-3(7H)-one], the “emission over time in BRET experiment (in words)” value in data set [4] is reported as “long lasting”. For the same compound, the “kinetic of chemiluminescence (in words)” value in data set [2] is on record as “slower than 23b”. The “max. emission peak of chemiluminescent spectrum” value in data set [2] is listed as 510 nm. Besides, the “emission shift between chemiluminescent spectrums” value in data set [2] (23f versus 23b) is listed as “about 45 nm”. Further, the “chemiluminescence intensity (in words)” value in data set [2] (compared with 23b) is “relative lowest intensity”. The bioluminescent emission result in data set [3] was “about 415 nm”. The “shift in respect of compound 23b” value in data set [3] is given as “about 30 nm”. Besides, the “Shifts vs.23b” value in data set [3] (1st measurement) is 27.7 nm; in data set [3] (2nd measurement), 27.4 nm; in data set [3] (3d measurement), 31.4 nm. In addition, the Bioluminescent emission max in data set [3] (1st measurement of triplicate) is recorded as 415.1 nm; in data set [3] (2nd measurement of triplicate) it was 419.4 nm; in data set [3] (3d measurement of triplicate) it was 424.3 nm.
On to `O=c1c(Cc2ccccc2)nc2c(Sc3ccc(Cl)cc3)[nH]c(-c3ccccc3)cn1-2` [Compound 23n, 2-Benzyl-8-(4-chlorophenylthio)-6-phenylimidazo[1,2-a]pyrazin-3(7H)-one], for which the “Chemil. Imax” value in data set [2] stood at 505 nm.
Turning to `O=c1c(Cc2ccccc2)nc2c(Cc3ccccc3)[nH]c(-c3ccccc3)cn1-2` [Compound 23b, 2,8-Dibenzyl-6-phenylimidazo-[1,2-a]pyrazin-3(7H)-one], in data set [2], the “max. emission peak of chemiluminescent spectrum” value was determined as 465 nm.
In the case of `O=c1c(Cc2ccc(F)cc2)nc2c(CC3CCCC3)[nH]c(-c3ccc(O)cc3)cn1-2` [Coelenterazine fcp], in data set [1] (first line of values), the “Half-rise Time” value is 0.4 to 0.8 s. In addition, in data set [1] (setting [6]), the “Relative Intensity” value is 135 and the “Relative Luminescence capacity” value is listed as 0.57.
Turning to `Oc1ccc(Cc2nc3c(Cc4ccccc4)nc4c(n3c2O)CCc2cc(O)ccc2-4)cc1` [Coelenterazine e], the “Half-rise Time” value in data set [1] (first line of values) is 0.15 to 0.3 s. In data set [1] (setting [6]), the “Relative Intensity” value is given as 4 and the “Relative Luminescence capacity” value is 0.5.
Regarding `O=c1c(Cc2ccc(O)cc2)nc2c(Cc3ccccc3)[nH]c(-c3ccc(O)cc3)cn1-2` [Compound 1, coelenterazine], the “Half-rise Time” value in data set [1] (first line of values) was 0.4 to 0.8 s. In data set [1] (setting [6]), the “Relative Intensity” value is listed as 1.00 and the “Relative Luminescence capacity” value is reported as 1.00. Also, the “Half-rise Time” value in data set [1] (second line of values) is 0.006 to 0.03 s. In addition, the ΦCl in data set [5] (chemiluminescence quantum yield) was 0.21%. Further, the “Relative Light Yield” value in data set [5] (in brackets, relative to compound 1 (1.0)) is listed as 1.0.
Consider Coelenterazine n, for which the “Half-rise Time” value is 5 s in data set [1] (first line of values) and 0.006 to 0.03 s in data set [1] (second line of values). The “Relative Intensity” value in data set [1] (setting [6]) is listed as 0.01; in data set [1] (setting [7]), 0.15. Besides, the “Relative Luminescence capacity” value in data set [1] (setting [6]) is listed as 0.26; in data set [1] (setting [7]), 0.25.
As for `O=c1c(Cc2ccccc2)nc2c(Cc3ccccc3)[nH]c(-c3ccc4c(c3)OCO4)cn1-2` [Compound 23e, 2,8-Dibenzyl-6-[3,4-(methylendioxy)-phenyl]imidazo-[1,2-a]pirazin-3(7H)-one], the “emission over time in BRET experiment (in words)” value in data set [4] is on record as “decrease over time”. Moreover, the “Shifts vs.23b” value in data set [3] (1st measurement) turned out to be 10.2 nm; in data set [3] (2nd measurement), 5.5 nm; in data set [3] (3d measurement) it was 5.2 nm. In addition, the Bioluminescent emission max is 397.6 nm in data set [3] (1st measurement of triplicate), 397.5 nm in data set [3] (2nd measurement of triplicate) and 398.2 nm in data set [3] (3d measurement of triplicate).
In the case of `O=c1c(Cc2ccc(O)cc2)nc2c(CC3CCCC3)[nH]c(-c3ccc(O)cc3)cn1-2` [Coelenterazine cp], the “Half-rise Time” value is 0.15 to 0.3 s in data set [1] (first line of values) and 0.005 s in data set [1] (second line of values). In addition, the “Relative Intensity” value in data set [1] (setting [6]) is 20; in data set [1] (setting [7]) it was 28. The “Relative Luminescence capacity” value in data set [1] (setting [6]) is 0.95; in data set [1] (setting [7]), 0.63.

The values are drawn from patent US8546147B2, “Imidazo[1,2-α]pyrazin-3(7H)-one derivatives bearing a new electron-rich structure” (Universita degli Studi di Siena, priority 2009, dated 2013).
